From ChEMBL document CHEMBL1201862, “PubChem BioAssay data set” (2004)
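Five compound concentrations were applied to cells in 96-well plates for 48 hours; endpoints were derived by simple linear interpolation of the resulting dose-response curve. Here, GI50 denotes the concentration required for 50% inhibition of growth.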 The source made the active and inactive calls. No stated cut-off is given here; in the data, active = GI50 up to about 1.1 µM and inactive = higher.

Tests used:
Test in all cases: inhibition of tumour cell growth, NCI panel, 48 h
786-0 = test system: 786-0
ACHN = test system: ACHN
HOP-92 = test system: HOP-92
Hs-578T = test system: Hs-578T
MCF7 = test system: MCF7
MDA-MB-231 = test system: MDA-MB-231
NCI-H522 = test system: NCI-H522
OVCAR-3 = test system: OVCAR-3
PC-3 = test system: PC-3
SF-295 = test system: SF-295
SN12C = test system: SN12C
T47D = test system: T47D
UACC-257 = test system: UACC-257
UO-31 = test system: UO-31
OVCAR-4 = test system: OVCAR-4
KM-20L2 = test system: KM-20L2
LXFL 529 = test system: LXFL 529
M19-MEL = test system: M19-MEL
SNB-78 = test system: SNB-78
XF498 = test system: XF498

SMILES	GI50 (786-0)	GI50 (ACHN)	GI50 (HOP-92)	GI50 (Hs-578T)	GI50 (MCF7)	GI50 (MDA-MB-231)	GI50 (NCI-H522)	GI50 (OVCAR-3)	GI50 (PC-3)	GI50 (SF-295)	GI50 (SN12C)	GI50 (T47D)	GI50 (UACC-257)	GI50 (UO-31)	GI50 (OVCAR-4)	GI50 (KM-20L2)	GI50 (LXFL 529)	GI50 (M19-MEL)	GI50 (SNB-78)	GI50 (XF498)
CNC(=O)CNC(=O)CCC(=O)N(C)C	> 100 µM (inactive)	> 100 µM (inactive)	> 100 µM (inactive)	> 100 µM (inactive)	> 100 µM (inactive)	> 100 µM (inactive)	> 100 µM (inactive)	> 100 µM (inactive)	> 100 µM (inactive)	> 100 µM (inactive)	> 100 µM (inactive)	> 100 µM (inactive)	> 100 µM (inactive)	> 100 µM (inactive)						
Cc1cc(=O)n2nc(CSc3nnc(S)s3)sc2n1	> 100 µM (inactive)	> 100 µM (inactive)	> 100 µM (inactive)	> 100 µM (inactive)	> 100 µM (inactive)	> 100 µM (inactive)	> 100 µM (inactive)	> 100 µM (inactive)	> 100 µM (inactive)	> 100 µM (inactive)	> 100 µM (inactive)	> 100 µM (inactive)	> 100 µM (inactive)	> 100 µM (inactive)	> 100 µM (inactive)					
O=c1ccc2nc3cc(Br)ccc3sc-2c1		57 µM (inactive)	> 100 µM (inactive)				56.8 µM (inactive)	> 100 µM (inactive)		> 100 µM (inactive)	> 100 µM (inactive)		> 100 µM (inactive)	> 100 µM (inactive)	29.4 µM (inactive)	> 100 µM (inactive)	89.7 µM (inactive)	55.1 µM (inactive)	> 100 µM (inactive)	
CSc1nc(Cl)c2c(n1)Sc1ncnn1C2O (stereo not drawn)	2.66 µM (inactive)	4.29 µM (inactive)	12.6 µM (inactive)	5.09 µM (inactive)	3.83 µM (inactive)	16.1 µM (inactive)	2.43 µM (inactive)	7.31 µM (inactive)	13.6 µM (inactive)		11 µM (inactive)		19.5 µM (inactive)	2.55 µM (inactive)	15 µM (inactive)					
COC1CCC(O)C(CO)O1 (stereo not drawn)		> 100 µM (inactive)	> 100 µM (inactive)				13.4 µM (inactive)	41.4 µM (inactive)		> 100 µM (inactive)	> 100 µM (inactive)		37.4 µM (inactive)	> 100 µM (inactive)	> 100 µM (inactive)	> 100 µM (inactive)	50.6 µM (inactive)	60.7 µM (inactive)	> 100 µM (inactive)	> 100 µM (inactive)
c1ccc2c(c1)SP1Sc3ccccc3P21 (stereo not drawn)			> 100 µM (inactive)		> 100 µM (inactive)		39.6 µM (inactive)	> 100 µM (inactive)		> 100 µM (inactive)	63.4 µM (inactive)		> 100 µM (inactive)	68.1 µM (inactive)	72.3 µM (inactive)	> 78 µM (inactive)		> 100 µM (inactive)	> 100 µM (inactive)	> 100 µM (inactive)
O=C1C(=Cc2cccc(O)c2)N=C(c2ccccc2)N1n1c(-c2ccccc2)nc2ccccc2c1=O	39.8 µM (inactive)	21.6 µM (inactive)	15.5 µM (inactive)	14.3 µM (inactive)		36.9 µM (inactive)	17.1 µM (inactive)	22.4 µM (inactive)	23.8 µM (inactive)	24 µM (inactive)	34.1 µM (inactive)	34.9 µM (inactive)	29 µM (inactive)	27.2 µM (inactive)	29.6 µM (inactive)					
COc1cc(C2c3cc4c(cc3[C@@H](Nc3ccc5c(c3)OCO5)C3COC(=O)[C@H]23)OCO4)cc(OC)c1O (stereo partly drawn)			0.424 µM (active)		0.175 µM (active)		1.06 µM (active)	2.9 µM (inactive)		0.213 µM (active)	0.643 µM (active)		0.507 µM (active)	0.382 µM (active)		2.24 µM (inactive)		1.65 µM (inactive)		1.64 µM (inactive)
Cc1cccc(C(C)C)c1NC(=O)CC1Sc2ccccc2NC1=O (stereo not drawn)		> 100 µM (inactive)	37.8 µM (inactive)				78.7 µM (inactive)	> 100 µM (inactive)		40.2 µM (inactive)	> 100 µM (inactive)		> 100 µM (inactive)	74.5 µM (inactive)	> 100 µM (inactive)	> 100 µM (inactive)	79.1 µM (inactive)			> 100 µM (inactive)
CC1=C(C)SC(=C2Sc3c(n(C)c(=O)[nH]c3=O)S2)S1	> 100 µM (inactive)	> 100 µM (inactive)	> 100 µM (inactive)	> 100 µM (inactive)	> 100 µM (inactive)	> 100 µM (inactive)	> 100 µM (inactive)	> 100 µM (inactive)	> 100 µM (inactive)	> 100 µM (inactive)	> 100 µM (inactive)	> 100 µM (inactive)	> 100 µM (inactive)	> 100 µM (inactive)	> 100 µM (inactive)					
O=C(CCC1C(=O)NC(=S)NC1=O)c1ccc2ccccc2c1	> 100 µM (inactive)	> 100 µM (inactive)	> 100 µM (inactive)				14.8 µM (inactive)	> 100 µM (inactive)		> 100 µM (inactive)	> 100 µM (inactive)		> 100 µM (inactive)	> 100 µM (inactive)	> 100 µM (inactive)	> 100 µM (inactive)	> 100 µM (inactive)	> 100 µM (inactive)	> 100 µM (inactive)	
Cc1ccc2c(c1)C(=O)N(N(C)C)CC(=O)N2		> 100 µM (inactive)	> 100 µM (inactive)				> 100 µM (inactive)	> 100 µM (inactive)		> 100 µM (inactive)			> 100 µM (inactive)	> 100 µM (inactive)	> 100 µM (inactive)		> 100 µM (inactive)	> 100 µM (inactive)	> 100 µM (inactive)	> 100 µM (inactive)
COc1ccc(C2CC(c3c(O)ccc4ccccc34)=NN2)cc1OC (stereo not drawn)		1.86 µM (inactive)	3.7 µM (inactive)	2.16 µM (inactive)	6.37 µM (inactive)	9.79 µM (inactive)	1.82 µM (inactive)	4.46 µM (inactive)	3.54 µM (inactive)	2.55 µM (inactive)	4.32 µM (inactive)	4.04 µM (inactive)	6.81 µM (inactive)	2.11 µM (inactive)	6.03 µM (inactive)					
CC(C)C[C@@H](NC(=O)[C@@H](Cc1cccc2ccccc12)NC(=O)N1CCOCC1)B(O)O		66.1 µM (inactive)	37.1 µM (inactive)	40.5 µM (inactive)		50.5 µM (inactive)		29.4 µM (inactive)	> 100 µM (inactive)		96.2 µM (inactive)	58.2 µM (inactive)	> 100 µM (inactive)	> 100 µM (inactive)	> 100 µM (inactive)					
[O-][n+]1c2c([n+]([O-])c3ccccc31)-c1cccc3cccc-2c13		> 100 µM (inactive)	81.3 µM (inactive)	32.9 µM (inactive)	> 100 µM (inactive)	33 µM (inactive)	65.9 µM (inactive)	> 100 µM (inactive)	> 100 µM (inactive)	34.3 µM (inactive)	> 100 µM (inactive)	> 100 µM (inactive)	> 100 µM (inactive)	43 µM (inactive)	> 100 µM (inactive)					
O=C(O)C12CCCC(CCC1)C2		> 100 µM (inactive)	> 100 µM (inactive)				> 100 µM (inactive)	> 100 µM (inactive)		> 100 µM (inactive)	> 100 µM (inactive)		> 100 µM (inactive)	> 100 µM (inactive)	> 100 µM (inactive)		> 100 µM (inactive)		> 100 µM (inactive)	> 100 µM (inactive)
CN(C)/C(=N\C#N)NCc1ccccc1	> 100 µM (inactive)	> 100 µM (inactive)	> 100 µM (inactive)				> 100 µM (inactive)	> 100 µM (inactive)		> 100 µM (inactive)	> 100 µM (inactive)		> 100 µM (inactive)	> 100 µM (inactive)	> 100 µM (inactive)	> 100 µM (inactive)	> 100 µM (inactive)	> 100 µM (inactive)	> 100 µM (inactive)	
CC(NNC(=O)c1cc[n+]([BH2-]C#N)cc1)c1ccccc1F (stereo not drawn)	> 100 µM (inactive)	> 100 µM (inactive)	> 100 µM (inactive)	> 100 µM (inactive)	> 100 µM (inactive)	> 100 µM (inactive)	> 100 µM (inactive)	> 100 µM (inactive)	> 100 µM (inactive)	> 100 µM (inactive)	> 100 µM (inactive)	> 100 µM (inactive)	> 100 µM (inactive)	> 100 µM (inactive)	> 100 µM (inactive)					
CN(C)CCCNC(=O)N/N=C/c1ccccn1		> 10 µM (inactive)	> 10 µM (inactive)	> 10 µM (inactive)	> 10 µM (inactive)	> 10 µM (inactive)	> 10 µM (inactive)		> 10 µM (inactive)	> 10 µM (inactive)	> 10 µM (inactive)	> 10 µM (inactive)	9.42 µM (inactive)	> 10 µM (inactive)	> 10 µM (inactive)					
